Reference: the NIST ThermoML archive (doi:10.1016/j.jct.2016.09.022)

Key:
[1] = refractive index (Na D-line) (dimensionless); details: 298.15 K; 101.33 kPa; Liquid; Standard Abbe refractometry
[2] = Liquid; for speed of sound: Frequency=1.5 MHz, Single path-length method; for mass density: 298.15 K, 101.33 kPa, Vibrating tube method

O [water]
Details | refractive index
[1] | 1.3326

speed of sound [m/s], [2]
Details | 283.15 K | 293.15 K | 303.15 K | 313.15 K | 323.15 K | 333.15 K | 343.15 K
100 kPa | 1447.3 | – | – | 1528.9 | – | 1551 | 1554.8
5100 kPa | 1455.9 | 1490.5 | 1517.5 | 1537.6 | 1551.5 | 1560.1 | 1565
10100 kPa | 1463.8 | 1498.9 | 1525.9 | 1546.1 | 1560.2 | 1569.2 | 1574.4
20100 kPa | 1479.9 | 1515.3 | – | 1563.2 | 1577.7 | 1587.1 | 1592.8
30100 kPa | 1496.2 | 1531.9 | 1559.5 | 1580.3 | 1595 | 1604.8 | 1610.8
40100 kPa | 1513.4 | 1548.6 | 1576.3 | 1597.1 | 1612.2 | 1622.2 | 1628.6
50100 kPa | – | 1565.3 | 1593.1 | 1613.8 | 1629 | 1639.3 | 1646.1
60100 kPa | 1548 | 1582.2 | 1609.8 | 1630.4 | 1645.7 | 1656.3 | 1663.9
70100 kPa | 1565.4 | 1599.1 | 1626.3 | 1646.9 | 1662.3 | 1673.1 | 1681
80100 kPa | 1582.7 | 1615.8 | 1642.6 | 1663.3 | 1678.3 | 1689.6 | 1697.4
90100 kPa | 1600.1 | 1632.4 | 1659 | 1679.4 | 1694.9 | 1705.9 | 1714.2
95100 kPa | 1608.7 | 1640.7 | 1667.3 | 1687.5 | 1702.9 | 1714 | 1723

CCCCCCCC [octane]
Details | mass density [kg/m3] | refractive index
[1] | – | 1.3951
[2] | 698.4 | –

speed of sound [m/s], [2]
Details | 283.15 K | 293.15 K | 303.15 K | 313.15 K | 323.15 K | 333.15 K | 343.15 K
100 kPa | 1234.6 | 1193.7 | 1151.8 | 1112.1 | 1071.1 | 1030.9 | 990.7
5100 kPa | 1267.1 | 1227.9 | 1187.6 | 1149 | 1110.4 | 1072.4 | 1034.3
10100 kPa | 1296.9 | 1259.5 | 1221 | 1183.4 | 1146.1 | 1110.1 | 1074.2
20100 kPa | 1353.6 | 1317.2 | 1282.1 | 1247.3 | 1212.3 | 1178.2 | 1145
30100 kPa | 1405.7 | 1370.4 | 1336.8 | 1303.8 | 1271.6 | 1239.8 | 1208.7
40100 kPa | 1453.5 | 1419.6 | 1388.1 | 1356.4 | 1325.3 | 1295 | 1265.9
50100 kPa | 1498 | 1465.6 | 1435.5 | 1405.1 | 1375.2 | 1346.2 | 1318
60100 kPa | 1539.8 | 1508.4 | 1480 | 1450.7 | 1421.8 | 1393.9 | 1367.8
70100 kPa | 1579.8 | 1549 | 1521.7 | 1493.2 | 1465.5 | 1438.5 | 1412.8
80100 kPa | 1619 | 1587.3 | 1561.4 | 1533.6 | 1506.6 | 1480.2 | 1455.5
90100 kPa | 1652.4 | 1623.9 | 1598.9 | 1571.9 | 1545.7 | 1519.8 | 1496
95100 kPa | 1670.7 | 1641.8 | 1617 | 1590.2 | 1564.5 | 1539 | 1515.2

Cc1ccccc1 [toluene]
Details | mass density [kg/m3] | refractive index
[1] | – | 1.494
[2] | 862.2 | –

speed of sound [m/s], [2]
Details | 283.15 K | 293.15 K | 303.15 K | 313.15 K | 323.15 K | 333.15 K | 343.15 K
100 kPa | 1369.5 | 1327.9 | 1284.1 | 1241.9 | 1200.2 | 1156.6 | 1118
5100 kPa | 1395.4 | 1352.2 | 1309.8 | 1269 | 1229.2 | 1187.4 | 1149.1
10100 kPa | 1418.1 | 1376 | 1334.3 | 1294.5 | 1256.4 | 1215.9 | 1178.9
20100 kPa | 1460.8 | 1420.5 | 1380.9 | 1341 | 1306.4 | 1268.1 | 1234.3
30100 kPa | 1500.8 | 1462 | 1424 | 1387 | 1352.7 | 1315.7 | 1283.9
40100 kPa | 1538.7 | 1500.9 | 1464.7 | 1429.5 | 1396.3 | 1360.3 | 1329.5
50100 kPa | 1574.4 | 1537.9 | 1503.3 | 1468.9 | 1436.9 | 1402.7 | 1371.4
60100 kPa | 1608.1 | 1572.4 | 1539.6 | 1506.4 | 1474.9 | 1441.4 | 1413.5
70100 kPa | 1640.3 | 1605.2 | 1572.1 | 1542.7 | 1511 | 1478.2 | 1451.5
80100 kPa | 1670.9 | 1637 | 1605.2 | 1576.1 | 1545.3 | 1513.1 | 1487.6
90100 kPa | 1700.3 | 1667.1 | 1638.2 | 1607.4 | 1576.7 | 1546.5 | 1522.1
95100 kPa | 1714.5 | 1682 | 1653.5 | 1621.2 | 1591.2 | 1563 | 1538.7

CCCCCC [hexane]
Details | mass density [kg/m3] | refractive index
[1] | – | 1.3723
[2] | 654.9 | –

speed of sound [m/s], [2]
Details | 283.15 K | 293.15 K | 303.15 K | 313.15 K | 323.15 K | 333.15 K | 343.15 K
100 kPa | 1147.3 | 1102.8 | 1056.2 | 1011.6 | 966.77 | 923.14 | –
105 kPa | – | – | – | – | – | – | 877.65
5100 kPa | 1183.8 | 1141.9 | 1097.9 | 1055.9 | 1013.6 | 972.45 | 931.79
10100 kPa | 1218.6 | 1177.2 | 1135.8 | 1096.4 | 1056.7 | 1017.2 | 977.66
20100 kPa | 1283.2 | 1243.4 | 1204.4 | 1167.8 | 1131.8 | 1096.3 | 1060.6
30100 kPa | 1339.6 | 1302.4 | 1266.5 | 1231.8 | 1197.6 | 1164 | 1131.3
40100 kPa | 1391.9 | 1356 | 1321.9 | 1289.3 | 1256.9 | 1225.4 | 1194.6
50100 kPa | 1440.2 | 1405.9 | 1373.7 | 1341.4 | 1311 | 1280.6 | 1252.1
60100 kPa | 1484.8 | 1452.3 | 1421.1 | 1390.3 | 1361.3 | 1331.7 | 1304.4
70100 kPa | 1526.9 | 1495.6 | 1464.4 | 1435.6 | 1408.2 | 1380.5 | 1354.1
80100 kPa | 1566.5 | 1536.7 | 1508.3 | 1478.3 | 1451.5 | 1425.6 | 1400.1
90100 kPa | 1604.6 | 1575.4 | 1548 | 1519.6 | 1493 | 1467.5 | 1442.2
95100 kPa | 1622.6 | 1594.1 | 1567.1 | 1539.5 | 1512.6 | 1487.5 | 1463.4
